Data set [1] has as its system L. pneumophila strain ATCC 33153. Nature of the data set: microbe, parasite or virus in culture. It is filed as cell-based. The note with it: Legionella pneumophila.
The conditions of data set [2]: in vivo.
Data set [3] has as its system B. anthracis. The note with it: approved or proposed for post-exposure anthrax indications; cited from earlier work.
Data set [4] concerns B. anthracis. Kind of data set: microbe, parasite or virus in culture. It is filed as cell-based.
Another data set relates to Y. pestis. Nature of the data set: microbe, parasite or virus in culture. It is filed as cell-based.
For another data set, the system named is F. tularensis. Kind of data set: microbe, parasite or virus in culture. It is filed as cell-based.
The next data set has as its system B. mallei. Kind of data set: microbe, parasite or virus in culture. It is filed as cell-based.
A further data set concerns B. pseudomallei. Kind of data set: microbe, parasite or virus in culture. It is filed as cell-based.
For data set [5], the system named is L. monocytogenes strain EGD. Kind of data set: microbe, parasite or virus in culture. To be noted: Listeria monocytogenes. It is filed as cell-based.
Data set [6] in a line: in vivo. To be noted: rat.
Data set [7] in a line: in vivo. The note with it: monkey.
Data set [8] in a line: in vivo. The note with it: rodents and non human primates.
A short description of another data set: clinical. To be noted: in vivo.
Where [9] appears, read: read-out: MIC, L. monocytogenes.
The mark [10] stands for this setting: ATCC33153, pH 6.5, read-out: MIC, L. pneumophila, pH-adjusted broth.
Setting [11] is: ATCC33153, pH 7.4, read-out: MIC, L. pneumophila, pH-adjusted broth.
[12] abbreviates: ATCC33153, read-out: MIC, L. pneumophila.

SMILES strings stand for the structures. ≈ marks a conversion by molar mass, not a printed value. Like-named read-outs stand apart in the source and are kept apart here.

As a reminder, the AUC is concentration integrated over time. What is called Cmax is the highest concentration seen after dosing. Usually Tmax stands for the time at which the peak concentration occurs. What is called half-life is the time needed for the level to fall by half in the phase considered.

For `CC[C@H]1OC(=O)[C@H](C)[C@@H](O[C@H]2C[C@@](C)(OC)[C@@H](O)[C@H](C)O2)[C@H](C)[C@@H](O[C@@H]2O[C@H](C)C[C@H](N(C)C)[C@H]2O)[C@](C)(OC)C[C@@H](C)C(=O)[C@H](C)[C@@H](O)[C@]1(C)O` [CLR, Clarithromycin], the MIC in data set [1] (ATCC33153) is 0.007 µg/mL (≈ 0.00936 µM). In addition, the “bioload when the time after the last dose was extended” value in data set [2] is given as “bioload increases”.

`CC[C@H]1OC(=O)[C@H](C)C(=O)[C@H](C)[C@@H](O[C@@H]2O[C@H](C)C[C@H](N(C)C)[C@H]2O)[C@](C)(OC/C=C/c2cnc3ccccc3c2)C[C@@H](C)C(=O)[C@H](C)[C@H]2NC(=O)O[C@@]21C` [cethromycin]: in the data set on B. anthracis [3], the “MIC90 against B. anthracis, comparator antibiotics” value is 0.063 µg/mL (≈ 0.0823 µM).

On to `CC[C@H]1OC(=O)[C@@](C)(F)C(=O)[C@H](C)[C@@H](OC2OC(C)CC(N(C)C)C2O)[C@@](C)(OC)C[C@@H](C)C(=O)[C@H](C)[C@H]2N(CCCCn3cc(-c4cccc(N)c4)nn3)C(=O)O[C@]12C` (some centres unmarked) [CEM-101, 11-N-4-(3-aminophenyl)-[1,2,3]triazol-1-yl]-butyl}-5-desosaminyl-3-oxo-2-fluoro-erythronolide A,-11,12-cyclic carbamate], for which the “MIC Range” value with B. anthracis [4] (B. anthracis, 30 strains) is below 0.008 to 0.015 µg/mL; against Y. pestis (Y. pestis, 30 strains) it was 0.25 to 2 µg/mL; in the data set with F. tularensis (F. tularensis, 30 strains), below 0.08 to 4 µg/mL; against B. mallei (B. mallei, 30 strains), 0.25 to 2 µg/mL; against B. pseudomallei (B. pseudomallei, 30 strains), 16 µg/mL (≈ 18.9 µM). Further, the MIC50 in the data set with B. anthracis [4] (Bacillus anthracis) was below 0.008 µg/mL; with Y. pestis (Yersinia pestis) it was 1 µg/mL (≈ 1.18 µM); with F. tularensis (Francisella tularensis), 0.03 µg/mL (≈ 0.0355 µM); against B. mallei (Burkholderia mallei) it was 1 µg/mL (≈ 1.18 µM); against B. pseudomallei (Burkholderia pseudomallei) it was 16 µg/mL (≈ 18.9 µM). In addition, the MIC90 in the data set on B. anthracis [4] (Bacillus anthracis) was below 0.008 µg/mL; with Y. pestis (Yersinia pestis), 2 µg/mL (≈ 2.37 µM); with F. tularensis (Francisella tularensis), 2 µg/mL (≈ 2.37 µM); against B. mallei (Burkholderia mallei), 1 µg/mL (≈ 1.18 µM); with B. pseudomallei (Burkholderia pseudomallei) it was 16 µg/mL (≈ 18.9 µM). Besides, the MIC in data set [5] turned out to be 0.004 µg/mL (≈ 0.00473 µM); in data set [5] (pH 7.4, read-out: MIC, L. monocytogenes (EDG), pH-adjusted broth) it was 0.0039 µg/mL (≈ 0.00462 µM); in data set [5] (setting [9]), 0.004 µg/mL (≈ 0.00473 µM); in data set [1] (ATCC33153), 0.004 µg/mL (≈ 0.00473 µM); in data set [1] (setting [10]), 0.01 µg/mL (≈ 0.0118 µM); in [1] (setting [11]) it was 0.005 µg/mL (≈ 0.00592 µM). In addition, in data set [1] (setting [12]), the MIC was determined as 0.004 µg/mL (≈ 0.00473 µM). Also, the Kp in the data set “in vivo [6]” was 5; in the data set “in vivo [7]” it was 54; in “in vivo [8]”, 17 to 100. The compound further showed an AUC in the data set “clinical” of 40 to 28600 ng·h/mL. In the data set “clinical”, this compound gave a peak concentration (Cmax) of 22 to 1960 ng/mL. Further, the Tmax in the data set “clinical” fell in the range of 1.5 to 6 h. In “clinical”, the half-life lay within 2.2 to 7.9 h.

As for `O=C(O)c1cn(C2CC2)c2cc(N3CCNCC3)c(F)cc2c1=O` [ciprofloxacin], in the data set on B. anthracis [3], the “MIC90 against B. anthracis, comparator antibiotics” value is 0.031 µg/mL (≈ 0.0936 µM).

Consider `CC[C@H]1OC(=O)[C@H](C)[C@@H](O[C@H]2C[C@@](C)(OC)[C@@H](O)[C@H](C)O2)[C@H](C)[C@@H](O[C@@H]2O[C@H](C)C[C@H](N(C)C)[C@H]2O)[C@](C)(O)C[C@@H](C)CN(C)[C@H](C)[C@@H](O)[C@]1(C)O` [AZI, Azithromycin], for which the MIC in [5] is 1 µg/mL (≈ 1.34 µM); in [5] (setting [9]), 1 µg/mL (≈ 1.34 µM); in data set [1] (ATCC33153), 0.016 µg/mL (≈ 0.0214 µM); in data set [1] (setting [10]), 0.25 µg/mL (≈ 0.334 µM); in data set [1] (setting [11]), around 0.01 µg/mL (≈ 0.0134 µM); in data set [1] (setting [12]), 0.016 µg/mL (≈ 0.0214 µM).

On to `CC[C@H]1OC(=O)[C@H](C)C(=O)[C@H](C)[C@@H](O[C@@H]2O[C@H](C)C[C@H](N(C)C)[C@H]2O)[C@](C)(OC)C[C@@H](C)C(=O)[C@H](C)[C@H]2N(CCCCn3cnc(-c4cccnc4)c3)C(=O)O[C@]12C` [TEL, Telithromycin], for which the MIC in data set [1] (ATCC33153) is 0.007 µg/mL (≈ 0.00862 µM). In addition, the “bioload when the time after the last dose was extended” value in [2] is listed as “bioload increases”.

Source of the values: patent US9072759B2 (priority 2008, dated 2015).
